The text below walks through data of ChEMBL document CHEMBL1201862, “PubChem BioAssay data set” (2004).

Some test systems named below: DMS-273; HOP-62; LOX IMVI; M14; MOLT-4; Malme-3M; NCI-H23; NCI-H460; OVCAR-3; SK-MEL-28; SW-620; TK-10; U-251; A498; HCT-116; HOP-92; MCF7; MDA-MB-435; PC-3; SK-OV-3.
What all share (test): NCI tumour cell line growth inhibition, 48 h

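96-well plates; 48 h exposure; 5 concentrations. Endpoints by linear interpolation between flanking doses. Not reached: highest tested concentration assigned. GI50 marks 50% less growth.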 Active and inactive are the calls of the source. Rule as the data show it: active = GI50 up to about 1.1 µM and inactive = higher.

Take `CCCCCCCCCCCCCC(=O)OC1C(O)C(CO)OC(OC)C1NC(=O)N(CCCl)N=O` (stereo unspecified): the GI50 was 71.1 µM (inactive) in the experiment on DMS-273; 50.7 µM (inactive) with HOP-62; 22.5 µM (inactive) in the experiment with LOX IMVI; > 100 µM (inactive) in the experiment with M14; 17.3 µM (inactive) in the experiment with MOLT-4; > 100 µM (inactive) in the experiment on Malme-3M. Moreover, the GI50 in the experiment with NCI-H23 is 28.6 µM (inactive); with NCI-H460 it was 18.7 µM (inactive); in the experiment with OVCAR-3, > 100 µM (inactive); in the experiment with SK-MEL-28, > 100 µM (inactive); in the experiment with SW-620 it was > 100 µM (inactive); with TK-10, > 100 µM (inactive). Also, in the experiment on U-251, the GI50 was 25.6 µM (inactive).
Take `CCCCN(CCCC)CC(=O)c1ccc2cc(Cl)c3ccccc3c2c1`: the GI50 in the experiment with A498 was 20.7 µM (inactive); with HCT-116, 43.1 µM (inactive); in the experiment with HOP-62 it was 50 µM (inactive); in the experiment on HOP-92 it was 33.5 µM (inactive); in the experiment on LOX IMVI it was 23.4 µM (inactive); with M14, 76 µM (inactive). The GI50 with MCF7 is 30.1 µM (inactive); with MDA-MB-435, 30.4 µM (inactive); in the experiment with MOLT-4, 31.5 µM (inactive); in the experiment with Malme-3M, 37.6 µM (inactive); with NCI-H23, 46.9 µM (inactive); in the experiment with NCI-H460 it was 18.3 µM (inactive). The GI50 in the experiment on OVCAR-3 is 51.4 µM (inactive); with PC-3 it was 32 µM (inactive); in the experiment with SK-OV-3, 31 µM (inactive); with SW-620, 29.8 µM (inactive); in the experiment on TK-10, 50 µM (inactive); in the experiment on U-251 it was 19.6 µM (inactive).
As for `CN1CN(c2ccccc2)C2(CCNCC2)C1=O`, the GI50 in the experiment with A498, in the experiment on HCT-116, in the experiment on HOP-62, with HOP-92, in the experiment with LOX IMVI and in the experiment on M14 was > 100 µM (inactive) in each case. In addition, the GI50 in the experiment on MCF7, with MDA-MB-435, in the experiment with MOLT-4, in the experiment with Malme-3M, with NCI-H23 and with NCI-H460 was > 100 µM (inactive) in each case. Besides, the GI50 in the experiment with OVCAR-3, in the experiment with PC-3, in the experiment on SK-MEL-28, in the experiment on SK-OV-3, with SW-620 and in the experiment on TK-10 was > 100 µM (inactive) in each case. For the same molecule, in the experiment with U-251, the GI50 is > 100 µM (inactive).
In the case of `c1cncc(O[Si](Oc2cccnc2)(Oc2cccnc2)Oc2cccnc2)c1`, the GI50 in the experiment with DMS-273, in the experiment with LOX IMVI, in the experiment with M14, in the experiment with MOLT-4, in the experiment with Malme-3M and with NCI-H23 was > 100 µM (inactive) throughout. Further, the GI50 with NCI-H460, in the experiment with OVCAR-3, in the experiment with SK-MEL-28, in the experiment on SK-OV-3, with SW-620 and in the experiment on TK-10 was > 100 µM (inactive) in each case. For the same molecule, the GI50 in the experiment with U-251 is > 100 µM (inactive).
Take `SC1=Nc2ccccc2-c2nc(-c3ccccc3)cc(-c3ccc(Br)cc3)c2C1`: the GI50 was 1.01 µM (active) in the experiment with A498; 1.64 µM (inactive) in the experiment on HCT-116; 1.31 µM (inactive) in the experiment with HOP-62; 1.95 µM (inactive) in the experiment on HOP-92; 2.99 µM (inactive) in the experiment on LOX IMVI; 2.4 µM (inactive) in the experiment on M14. Moreover, the GI50 in the experiment on MCF7 is 4.59 µM (inactive); in the experiment on MDA-MB-435, 6.73 µM (inactive); in the experiment with MOLT-4, 18.2 µM (inactive); in the experiment with Malme-3M, 2.59 µM (inactive); in the experiment with NCI-H23, 2.65 µM (inactive); in the experiment on NCI-H460, 0.859 µM (active). Besides, the GI50 in the experiment on OVCAR-3 is 2.29 µM (inactive); with PC-3 it was 6.44 µM (inactive); in the experiment with SK-MEL-28 it was 11.2 µM (inactive); in the experiment with SK-OV-3, 0.897 µM (active); in the experiment with SW-620, 2.4 µM (inactive); in the experiment with U-251 it was 0.982 µM (active).
